PMC11047535, “Pharmacokinetics and Nephrotoxicity of Polymyxin MRX-8 in Rats: A Novel Agent against Resistant Gram-Negative Bacteria” (Antibiotics, 2024)
Where two headings read alike, the source gives them in different places. Positions of bridges follow the written chain, without caps; N, C: chain ends. Non-standard residues stand in square brackets, D forms with d. Residues, ends and D or L forms follow the SMILES beside them. *: point of attachment. Propanoyl(3-OH) = O=C(CCO)*; X1 = CC[C@H](C)CCCCC(=O)*; Dab = NCC[C@H](N)C(=O)O

Legend:
Format in all cases: in vivo, Sprague-Dawley (SD) rats
[1] = Pharmacokinetics in rat plasma after single subcutaneous administration (LC-MS/MS, non-compartmental analysis); details: for CLz (total body clearance for extravascular administration) / V (volume of distribution) / AUC(0-t) / Cmax / Tmax / MRT / half-life: LC-MS/MS, NCA, n = 5; for AUC(0-t) / Cmax / Tmax / MRT / half-life: Sprague-Dawley, sc; for MRT: read-out: MRT (mean residence time); for half-life: read-out: T1/2 (terminal half-life) (converted)
Procedure: A Shimadzu LC-30A UHPLC system (Shimadzu, Kyoto, Japan) coupled with a Sciex QTRAP-5500 tandem mass spectrometer (Sciex, Framingham, MA, USA) was utilized. The chromatography was separated on a PHENOMENEX Kinetex®XB-C18 column (Phenomenex, Torrance, CA, USA) (100 mm × 2.1 mm, 2.6 μm) at 40 °C. The mobile phases were 2 mM of an ammonium acetate solution with 0.1% formic acid as the aqueous phase and acetonitrile solution with 0.1% formic acid as the organic phase. The gradient elution condition settings are detailed in Table S1. The mass spectrometer was operated in positive ESI mode with the following parameters: nebulizer gas (45 psi), heater gas (55 psi), curtain gas (40 psi), ion-spray voltage 4500 V, and ion source temperature of 450 °C.
An aliquot of 40 μL of rat plasma samples, 50 μL of polymyxin B1 (IS, 20 mg/L), and 50 μL of 6% formic acid in water were mixed. Then, 300 μL of acetonitrile was added to the mixture to precipitate proteins and centrifuged at 4 °C at 13,800 g for 10 min. A 100 μL aliquot of the supernatant was transferred and mixed with 150 μL of 6% formic acid water, and 5 μL was injected into the LC-MS/MS system.
A total of 20 wild-type male Sprague-Dawley (SD) rats weighing 280 g ± 20 g were randomly divided into 4 groups. Water and food were adequately provided. Four groups were given MRX-8 at doses of 2 mg/kg, 4 mg/kg, 6 mg/kg, and 8 mg/kg of body weight (dissolved in normal saline). 0.5 mL of blood samples were obtained from the jugular vein (without anesthesia) before and 0.25, 0.5, 1, 2, 4, 6, 8, and 24 h after dosing. Blood samples were collected into tubes with EDTA-K2 anticoagulant and centrifuged at 4 °C at 3500 g for 10 min. The plasma was collected and stored in a −70 °C refrigerator until analysis.
In the meantime, 10 additional SD rats were divided into two groups (5 rats each) and administered PMB at 4 mg/kg and 8 mg/kg, separately. Blood samples were obtained before and 0.25, 0.5, 1, 2, 4, 6, 8, 10, 12, and 24 h after dosing. The drug administration and sample collection methods were consistent with those used for MRX-8.
MRX-8 and MRX-8039 concentrations in plasma were measured, and mean concentration–time curves were plotted. […] After the administration, concentrations below the LLOQ were discarded.

rats [2] = assay: Creatinine in rat plasma (nephrotoxicity), ADVIA Chemistry XPT analyzer; details: for creatinine concentration: SD rats
Procedure: (§1) Rats’ plasma and urine were collected continuously for 24 h after being administered subcutaneously. The plasma collected for the PK assay was split for creatinine and BUN concentrations, whereas a separate experiment was conducted to measure the biomarkers. The concentrations of creatinine and BUN in rat plasma were quantified utilizing the ADVIA Chemistry XPT analyzer (Siemens Healthcare, Munich, Germany). Rat plasma samples, along with quality control samples, were prepared and processed with dedicated reagent cartridges.

rats [3] = assay: Blood urea nitrogen (BUN) in rat plasma (nephrotoxicity), ADVIA Chemistry XPT analyzer; details: for BUN level: SD rats
Procedure: as §1

rats [4] = assay: Plasma NGAL kidney injury biomarker, ELISA; details: 24 h after single s.c. 8 mg/kg, saline group 53.03 ± 2.25
Procedure: as §1
(§2) Enzyme-linked immunosorbent assay kits specific for KIM-1 (Cell Signaling Technology, Danvers, MA, USA), NGAL (Sangon Biotech, Shanghai, China), and TIMP-1 (Sangon Biotech, Shanghai, China) were utilized for analysis.

rats [5] = assay: Urinary NGAL kidney injury biomarker, ELISA; details: saline group 45.22 ± 1.46
Procedure: as §1, §2

rats [6] = assay: Urinary KIM-1 kidney injury biomarker, ELISA; details: 24 h after single s.c. 4 and 8 mg/kg, high variability within each group
Procedure: as §1, §2

rats [7] = assay: Urinary TIMP-1 kidney injury biomarker, ELISA; details: for urinary TIMP-1 level: saline group 2.89 ± 1.80
Procedure: as §1, §2

rat kidney tissues = assay: Kidney histology, PAS staining and semi-quantitative scores (SQS); details: PAS staining
Procedure: The kidney tissues were taken 24 h after the PK sample collection. The tissues were embedded in paraffin, sliced, dewaxed into water, and washed for 5 min. […] The pathology scores refer to the paper published by Jumana et al.. Briefly, the renal histological assessment included three grades of tubular damage. Scores were assigned to grades: grade 1 = 1, grade 2 = 4, and grade 3 = 10. Kidney involvement was assessed based on the percentage of affected slices: <1% = 0, 1 to <5% = 1, 5 to <10% = 2, 10 to <20% = 3, 20 to <30% = 4, 30 to <40% = 5, and ≥40% = 6. The overall score was calculated by multiplying the percentage score with the grade score. Finally, SQS for renal histological changes was assigned: SQS 0 = no significant change (overall score: <1); SQS +1 = mild damage (overall score: 1 to <15); SQS +2 = mild-to-moderate damage (overall score: 15 to <30); SQS +3 = moderate damage (overall score: 30 to <45); SQS +4 = moderate-to-severe damage (overall score: 45 to <60); and SQS +5 = severe damage (overall score: 60). The samples in this experiment were examined by pathologist Shaojun Liu, who had no knowledge of the grouping.
A one-way ANOVA was performed to evaluate (1) the PK parameters of T1/2, CLZ, V, and MRT at the dosages of 4, 6, and 8 mg/kg; (2) the concentrations of kidney injury biomarkers between the saline, MRX-8, and PMB groups. […]

[8] = SD rats, single s.c. dose 4 mg/kg, plasma
[9] = SD rats, single s.c. dose 8 mg/kg, plasma
[10] = rat, in vivo, SD rats, single s.c. dose 4 mg/kg, plasma
[11] = rat, in vivo, SD rats, single s.c. dose 8 mg/kg, plasma

CC(C)C[C@@H]1NC(=O)[C@@H](Cc2ccccc2)NC(=O)[C@H](CCN)NC(=O)[C@@H](NC(=O)[C@H](CCN)NC(=O)[C@@H](NC(=O)[C@H](CCN)NC(=O)CCO)[C@@H](C)O)CCNC(=O)[C@H]([C@@H](C)O)NC(=O)[C@H](CCN)NC(=O)[C@H](CCN)NC1=O [MRX-8039] ({Propanoyl(3-OH)}-[Dab]T[Dab][Dab][Dab][dF]L[Dab][Dab]T; lactam 4-C)
Tmax delay of MRX-8039 relative to MRX-8 ([1]; rat, in vivo): approximately 1.5 h

CC[C@H](C)CCCCC(=O)N[C@@H](CCN)C(=O)N[C@H](C(=O)N[C@@H](CCN)C(=O)N[C@H]1CCNC(=O)[C@H]([C@@H](C)O)NC(=O)[C@H](CCN)NC(=O)[C@H](CCN)NC(=O)[C@H](CC(C)C)NC(=O)[C@@H](Cc2ccccc2)NC(=O)[C@H](CCN)NC1=O)[C@@H](C)O [PMB, polymyxin B] (X1-[Dab]T[Dab][Dab][Dab][dF]L[Dab][Dab]T; lactam 4-C)
Tmax (absorption, as read from Figure 3) ([1]; SD rats, s.c. administration, plasma, range over dose groups): 4~6 h
CLz (total body clearance for extravascular administration) [1, 8]: 4 ± 1 mL/min/kg
V (volume of distribution) [1, 8]: 1.52 ± 0.27 L/kg
CLz (total body clearance for extravascular administration) [1, 9]: 4.17 ± 0.33 mL/min/kg
V (volume of distribution) [1, 9]: 1.49 ± 0.31 L/kg
AUC(0-t) ([1]; rat, in vivo, 4 mg/kg, SD rats, single s.c. dose 4 mg/kg, plasma, read-out: AUC0–8 h): 9550 ± 2540 ng·h/mL
AUC(0-t) ([1]; rat, in vivo, 4 mg/kg, SD rats, single s.c. dose 4 mg/kg, plasma, read-out: AUC0–24 h): 17100 ± 3900 ng·h/mL
AUC(0-t) ([1]; rat, in vivo, 8 mg/kg, SD rats, single s.c. dose 8 mg/kg, plasma, read-out: AUC0–8 h): 17900 ± 3050 ng·h/mL
AUC(0-t) ([1]; rat, in vivo, 8 mg/kg, SD rats, single s.c. dose 8 mg/kg, plasma, read-out: AUC0–24 h): 31200 ± 3140 ng·h/mL
Cmax [1, 10]: 1770 ± 510 ng/mL
Tmax [1, 10]: 4.8 ± 1.1 h
MRT [1, 10]: 8.66 ± 0.7 h
half-life [1, 10]: 4.55 ± 0.56 h
Cmax [1, 11]: 3150 ± 440 ng/mL
Tmax [1, 11]: 6 h
MRT [1, 11]: 8.23 ± 0.71 h
half-life [1, 11]: 4.09 ± 0.44 h
creatinine concentration (rats [2]; 8 h after single s.c. 4 mg/kg, saline group 21.25 ± 2.22): 103.86 ± 12.66 µmol/L
creatinine concentration (rats [2]; 8 h after single s.c. 8 mg/kg, saline group 21.25 ± 2.22): 85.61 ± 17.27 µmol/L
change of blood creatinine levels compared to the saline group (rats [2]; 8 h and 24 h after single s.c. dose (MRX-8 2 to 8 mg/kg; PMB 4 and 8 mg/kg), one-way ANOVA): significant increase
creatinine concentration (rats [2]; 24 h after single s.c. 4 mg/kg, saline group 22.5 ± 2.52): 169.79 ± 61.93 µmol/L
creatinine concentration (rats [2]; 24 h after single s.c. 8 mg/kg, saline group 22.5 ± 2.52): 110.81 ± 67.3 µmol/L
BUN level (rats [3]; 8 h after single s.c. 4 mg/kg, saline group 5.52 ± 0.56): 19.58 ± 3.05 mmol/L
BUN level (rats [3]; 8 h after single s.c. 8 mg/kg): 15.36 ± 3.05 mmol/L
change of BUN levels compared to the saline group (rats [3]; 8 h and 24 h after single s.c. dose (PMB 4 and 8 mg/kg; MRX-8, except significant increase at 4 mg/kg at 8 h)): significant increase
BUN level (rats [3]; 24 h after single s.c. 4 mg/kg): 44.3 ± 1.12 mmol/L
BUN level (rats [3]; 24 h after single s.c. 8 mg/kg): 54.85 ± 11.81 mmol/L
NGAL level in plasma (rats [4]): 61.14 ± 2.52 ng/mL
urinary NGAL level (rats [5]; 24 h after single s.c. 4 mg/kg): 50.34 ± 2.70 ng/mL
urinary NGAL level (rats [5]; 24 h after single s.c. 8 mg/kg): 56.95 ± 6.01 ng/mL
change of urine KIM-1 levels compared to the saline group (rats [6]): No statistically significant differences
urinary TIMP-1 level (rats [7]; 24 h after single s.c. 4 mg/kg): 20.65 ± 12.44 ng/mL
urinary TIMP-1 level (rats [7]; 24 h after single s.c. 8 mg/kg): 20.54 ± 7.82 ng/mL
change of urinary TIMP-1 compared to the saline group (rats [7]; 24 h after single s.c. 4 and 8 mg/kg): increased significantly
histological findings in kidney tissues (rat kidney tissues; 24 h post single s.c. dose of 8 mg/kg): more severe renal damage, including tubular dilation, cellular necrosis, and tubular formation
histological findings in kidney tissues (rat kidney tissues; 24 h post single s.c. dose, compared to the saline group): mild focal tubular cell shedding and cytoplasmic attenuation
